Source: PubChem BioAssay AID1745844 (Carcinogenic Potency Database (CPDB), 2022)
Calls of active or inactive are those of the source. The rule behind the calls is not given here. Numbered stars: 1 amine (or outer) side, 2 acyl side, 3 side chain; on linkers, the order of the positions; unused ones are H or OH. Bridge positions count the residues as written; N and C are the ends. Square brackets hold non-standard residues; d marks the D form. Peptide text beside a SMILES is read from it. I, II: the chains in the order shown. Actinocin(9to1) = Cc1c2oc3c(C)ccc(C(=O)[*:1])c3nc-2c(C(=O)[*:2])c(N)c1=O; NMeV = CN[C@H](C(=O)O)C(C)C; Sar = CNCC(=O)O

Tested on: rodent lifetime carcinogenesis bioassay, tumor incidence TD50
Assay: chronic cancer bioassays in animals – CPDB, compiled studies (AID 1745844)

SMILES: Cc1c2oc3c(C)ccc(C(=O)N[C@@H]4C(=O)N[C@H](C(C)C)C(=O)N5CCC[C@H]5C(=O)N(C)CC(=O)N(C)[C@@H](C(C)C)C(=O)O[C@@H]4C)c3nc-2c(C(=O)N[C@@H]2C(=O)N[C@H](C(C)C)C(=O)N3CCC[C@H]3C(=O)N(C)CC(=O)N(C)[C@@H](C(C)C)C(=O)O[C@@H]2C)c(N)c1=O (I: T[dV]P[Sar][NMeV] / II: T[dV]P[Sar][NMeV]; ester I:1-I:C, II:1-II:C; linker I:N-II:N via Actinocin(9to1))
- TD50 (rat, strain Charles River CD (Sprague-Dawley), females, i.p., site: any site (literature study), lesion: malignant tumor, dosed 26 weeks, study length 78 weeks): 0.00121 mg/kg/day
- TD50 (rat, strain Charles River CD (Sprague-Dawley), females, i.p., site: any site (literature study), lesion: several types, types named in the paper, dosed 26 weeks, study length 78 weeks): 0.00145 mg/kg/day
- TD50 (rat, strain Charles River CD (Sprague-Dawley), females, i.p., site: lung, lesion: adenoma, dosed 26 weeks, study length 78 weeks): 0.0501 mg/kg/day
- TD50 (rat, strain Charles River CD (Sprague-Dawley), females, i.p., site: peritoneum, lesion: sarcoma, dosed 26 weeks, study length 78 weeks): 0.00199 mg/kg/day
- TD50 (rat, strain Charles River CD (Sprague-Dawley), males, i.p., site: all sites, lesion: lymphosarcoma, dosed 26 weeks, study length 78 weeks): 0.0201 mg/kg/day
- TD50 (rat, strain Charles River CD (Sprague-Dawley), males, i.p., site: all sites, lesion: plasmacytoma, dosed 26 weeks, study length 78 weeks): 0.0201 mg/kg/day
- TD50 (rat, strain Charles River CD (Sprague-Dawley), males, i.p., site: any site (literature study), lesion: malignant tumor, dosed 26 weeks, study length 78 weeks): 0.000708 mg/kg/day
- TD50 (rat, strain Charles River CD (Sprague-Dawley), males, i.p., site: any site (literature study), lesion: several types, types named in the paper, dosed 26 weeks, study length 78 weeks): 0.000501 mg/kg/day
- TD50 (rat, strain Charles River CD (Sprague-Dawley), males, i.p., site: liver, lesion: hemangioma, dosed 26 weeks, study length 78 weeks): 0.0407 mg/kg/day
- TD50 (rat, strain Charles River CD (Sprague-Dawley), males, i.p., site: peritoneum, lesion: sarcoma, dosed 26 weeks, study length 78 weeks): 0.000769 mg/kg/day

SMILES: O=c1[nH]nc(-c2ccc([N+](=O)[O-])o2)o1
- TD50 (rat, strain Sprague-Dawley, females, in feed, site: any site (literature study), lesion: several types, types named in the paper, dosed 46 weeks, study length 66 weeks): 8.61 mg/kg/day
- TD50 (rat, strain Sprague-Dawley, females, in feed, site: mammary gland, lesion: adenocarcinoma, dosed 46 weeks, study length 66 weeks): 31.2 mg/kg/day
- TD50 (rat, strain Sprague-Dawley, females, in feed, site: mammary gland, lesion: several types, types named in the paper, dosed 46 weeks, study length 66 weeks): 8.61 mg/kg/day

SMILES: C=CCNN
- TD50 (mouse, strain Swiss albino, females, in drinking water, site: blood vessels, lesion: angioma, dosed 105 weeks, study length 105 weeks): 163 mg/kg/day
- TD50 (mouse, strain Swiss albino, females, in drinking water, site: blood vessels, lesion: several types, types named in the paper, dosed 105 weeks, study length 105 weeks): 119 mg/kg/day
- TD50 (mouse, strain Swiss albino, females, in drinking water, site: liver, lesion: several types, types named in the paper, dosed 105 weeks, study length 105 weeks): 234 mg/kg/day
- TD50 (mouse, strain Swiss albino, females, in drinking water, site: lung, lesion: adenocarcinoma, dosed 105 weeks, study length 105 weeks): 96 mg/kg/day
- TD50 (mouse, strain Swiss albino, females, in drinking water, site: lung, lesion: adenoma, dosed 105 weeks, study length 105 weeks): 46.1 mg/kg/day
- TD50 (mouse, strain Swiss albino, females, in drinking water, site: lung, lesion: several types, types named in the paper, dosed 105 weeks, study length 105 weeks): 38.4 mg/kg/day
- TD50 (mouse, strain Swiss albino, males, in drinking water, site: liver, lesion: hepatoma, dosed 93 weeks, study length 93 weeks): 274 mg/kg/day (inactive)
- TD50 (mouse, strain Swiss albino, males, in drinking water, site: lung, lesion: adenoma, dosed 93 weeks, study length 93 weeks): 28.9 mg/kg/day
- TD50 (mouse, strain Swiss albino, males, in drinking water, site: lung, lesion: several types, types named in the paper, dosed 93 weeks, study length 93 weeks): 30.9 mg/kg/day

SMILES: Nc1cccc2c(N)cccc12
- TD50 (mouse, strain B6C3F1, females, in feed, site: any site (literature study), lesion: several types, types named in the paper, dosed 103 weeks, study length 105 weeks): 223 mg/kg/day
- TD50 (mouse, strain B6C3F1, females, in feed, site: liver + lung + thyroid gland, lesion: hepatocellular adenoma + hepatocellular carcinoma + alveolar/bronchiolar adenoma + alveolar/bronchiolar carcinoma + c-cell adeno, dosed 103 weeks, study length 105 weeks): 66.6 mg/kg/day
- TD50 (mouse, strain B6C3F1, females, in feed, site: liver, lesion: hepatocellular adenoma + hepatocellular carcinoma + neoplastic nodule, dosed 103 weeks, study length 105 weeks): 129 mg/kg/day
- TD50 (mouse, strain B6C3F1, females, in feed, site: liver, lesion: hepatocellular adenoma + hepatocellular carcinoma, dosed 103 weeks, study length 105 weeks): 129 mg/kg/day
- TD50 (mouse, strain B6C3F1, females, in feed, site: liver, lesion: hepatocellular carcinoma, dosed 103 weeks, study length 105 weeks): 115 mg/kg/day
- TD50 (mouse, strain B6C3F1, females, in feed, site: lung, lesion: alveolar/bronchiolar adenoma + alveolar/bronchiolar carcinoma, dosed 103 weeks, study length 105 weeks): 331 mg/kg/day
- TD50 (mouse, strain B6C3F1, females, in feed, site: thyroid gland, lesion: c-cell adenoma + c-cell carcinoma, dosed 103 weeks, study length 105 weeks): 936 mg/kg/day
- TD50 (mouse, strain B6C3F1, females, in feed, site: thyroid gland, lesion: c-cell carcinoma, dosed 103 weeks, study length 105 weeks): 1320 mg/kg/day
- TD50 (mouse, strain B6C3F1, females, in feed, site: thyroid gland, lesion: follicular-cell adenoma + papillary cystadenoma, NOS + papillary adenoma, dosed 103 weeks, study length 105 weeks): 327 mg/kg/day
- TD50 (mouse, strain B6C3F1, males, in feed, site: any site (literature study), lesion: several types, types named in the paper, dosed 103 weeks, study length 105 weeks): 583 mg/kg/day
- TD50 (mouse, strain B6C3F1, males, in feed, site: liver, lesion: hepatocellular adenoma + hepatocellular carcinoma + neoplastic nodule, dosed 103 weeks, study length 105 weeks): 1640 mg/kg/day
- TD50 (mouse, strain B6C3F1, males, in feed, site: thyroid gland, lesion: c-cell adenoma + c-cell carcinoma + follicular-cell adenoma + papillary cystadenoma, NOS + papillary adenoma, dosed 103 weeks, study length 105 weeks): 217 mg/kg/day
- TD50 (mouse, strain B6C3F1, males, in feed, site: thyroid gland, lesion: c-cell adenoma + c-cell carcinoma, dosed 103 weeks, study length 105 weeks): 1260 mg/kg/day
- TD50 (mouse, strain B6C3F1, males, in feed, site: thyroid gland, lesion: c-cell carcinoma, dosed 103 weeks, study length 105 weeks): 1910 mg/kg/day
- TD50 (mouse, strain B6C3F1, males, in feed, site: thyroid gland, lesion: follicular-cell adenoma + papillary cystadenoma, NOS + papillary adenoma, dosed 103 weeks, study length 105 weeks): 276 mg/kg/day
- TD50 (rat, strain Fischer 344, females, in feed, site: any site (literature study), lesion: several types, types named in the paper, dosed 103 weeks, study length 106 weeks): 55.8 mg/kg/day
- TD50 (rat, strain Fischer 344, females, in feed, site: clitoral gland + uterus, lesion: adenoma, NOS + carcinoma, NOS + endometrial stromal polyp, dosed 103 weeks, study length 106 weeks): 50.8 mg/kg/day
- TD50 (rat, strain Fischer 344, females, in feed, site: clitoral gland, lesion: adenoma, NOS + carcinoma, NOS, dosed 103 weeks, study length 106 weeks): 137 mg/kg/day
- TD50 (rat, strain Fischer 344, females, in feed, site: liver, lesion: hepatocellular adenoma + hepatocellular carcinoma + neoplastic nodule, dosed 103 weeks, study length 106 weeks): 236 mg/kg/day
- TD50 (rat, strain Fischer 344, females, in feed, site: thyroid gland, lesion: c-cell adenoma + c-cell carcinoma, dosed 103 weeks, study length 106 weeks): 57.6 mg/kg/day
- TD50 (rat, strain Fischer 344, females, in feed, site: uterus, lesion: endometrial stromal polyp, dosed 103 weeks, study length 106 weeks): 69.6 mg/kg/day
- TD50 (rat, strain Fischer 344, males, in feed, site: any site (literature study), lesion: several types, types named in the paper, dosed 103 weeks, study length 106 weeks): 48.1 mg/kg/day (inactive)
- TD50 (rat, strain Fischer 344, males, in feed, site: liver, lesion: hepatocellular adenoma + hepatocellular carcinoma + neoplastic nodule, dosed 103 weeks, study length 106 weeks): 1040 mg/kg/day

SMILES: CC(=O)Nc1ccc(C(=O)CCl)cc1
- TD50 (mouse, strain B6C3F1, females, in feed, site: any site (literature study), lesion: several types, types named in the paper, dosed 90 weeks, study length 105 weeks): 3500 mg/kg/day
- TD50 (mouse, strain B6C3F1, females, in feed, site: liver, lesion: hepatocellular adenoma + hepatocellular carcinoma + neoplastic nodule, dosed 90 weeks, study length 105 weeks): 4700 mg/kg/day
- TD50 (mouse, strain B6C3F1, females, in feed, site: liver, lesion: hepatocellular adenoma, dosed 90 weeks, study length 105 weeks): 4700 mg/kg/day
- TD50 (mouse, strain B6C3F1, females, in feed, site: lung, lesion: alveolar/bronchiolar adenoma + alveolar/bronchiolar carcinoma, dosed 90 weeks, study length 105 weeks): 3020 mg/kg/day
- carcinogen call (mouse, strain B6C3F1, males, in feed, site: any site (literature study), lesion: several types, types named in the paper, dosed 90 weeks, study length 105 weeks): negative (inactive)
- carcinogen call (rat, strain Fischer 344, females, in feed, site: any site (literature study), lesion: several types, types named in the paper, dosed 87 weeks, study length 103 weeks): negative (inactive)
- TD50 (rat, strain Fischer 344, males, in feed, site: any site (literature study), lesion: several types, types named in the paper, dosed 87 weeks, study length 103 weeks): 325 mg/kg/day (inactive)
- TD50 (rat, strain Fischer 344, males, in feed, site: liver, lesion: hepatocellular adenoma + hepatocellular carcinoma + neoplastic nodule, dosed 87 weeks, study length 103 weeks): 2470 mg/kg/day

SMILES: Nc1ccc2c(c1)C(=O)c1ccccc1C2=O
- TD50 (mouse, strain B6C3F1, females, in feed, site: all sites + liver, lesion: lymphoma + hepatocellular carcinoma, dosed 79 weeks, study length 94 weeks): 1490 mg/kg/day
- TD50 (mouse, strain B6C3F1, females, in feed, site: all sites, lesion: lymphoma, dosed 79 weeks, study length 94 weeks): 3160 mg/kg/day
- TD50 (mouse, strain B6C3F1, females, in feed, site: any site (literature study), lesion: several types, types named in the paper, dosed 79 weeks, study length 94 weeks): 1620 mg/kg/day
- TD50 (mouse, strain B6C3F1, females, in feed, site: liver, lesion: hepatocellular adenoma + hepatocellular carcinoma + neoplastic nodule, dosed 79 weeks, study length 94 weeks): 2820 mg/kg/day
- TD50 (mouse, strain B6C3F1, females, in feed, site: liver, lesion: hepatocellular carcinoma, dosed 79 weeks, study length 94 weeks): 2820 mg/kg/day
- TD50 (mouse, strain B6C3F1, females, in feed, site: lung, lesion: alveolar/bronchiolar adenoma + alveolar/bronchiolar carcinoma, dosed 79 weeks, study length 94 weeks): 33400 mg/kg/day
- TD50 (mouse, strain B6C3F1, males, in feed, site: any site (literature study), lesion: several types, types named in the paper, dosed 79 weeks, study length 93 weeks): 952 mg/kg/day
- TD50 (mouse, strain B6C3F1, males, in feed, site: liver, lesion: hepatocellular adenoma + hepatocellular carcinoma + neoplastic nodule, dosed 79 weeks, study length 93 weeks): 798 mg/kg/day
- TD50 (mouse, strain B6C3F1, males, in feed, site: liver, lesion: hepatocellular adenoma + hepatocellular carcinoma, dosed 79 weeks, study length 93 weeks): 798 mg/kg/day
- TD50 (mouse, strain B6C3F1, males, in feed, site: liver, lesion: hepatocellular carcinoma, dosed 79 weeks, study length 93 weeks): 755 mg/kg/day
- TD50 (mouse, strain B6C3F1, males, in feed, site: lung, lesion: alveolar/bronchiolar adenoma + alveolar/bronchiolar carcinoma, dosed 79 weeks, study length 93 weeks): 19400 mg/kg/day
- TD50 (rat, strain Fischer 344, females, in feed, site: any site (literature study), lesion: several types, types named in the paper, dosed 78 weeks, study length 109 weeks): 124 mg/kg/day (inactive)
- TD50 (rat, strain Fischer 344, males, in feed, site: any site (literature study), lesion: several types, types named in the paper, dosed 78 weeks, study length 106 weeks): 759 mg/kg/day
- TD50 (rat, strain Fischer 344, males, in feed, site: liver, lesion: hepatocellular adenoma + hepatocellular carcinoma + neoplastic nodule, dosed 78 weeks, study length 106 weeks): 101 mg/kg/day
- TD50 (rat, strain Fischer 344, males, in feed, site: liver, lesion: hepatocellular carcinoma + neoplastic nodule, dosed 78 weeks, study length 106 weeks): 101 mg/kg/day
- TD50 (rat, strain Fischer 344, males, in feed, site: liver, lesion: hepatocellular carcinoma, dosed 78 weeks, study length 106 weeks): 268 mg/kg/day

SMILES: CCN(CC)c1ccc2c(-c3ccc(S(=O)(=O)O)cc3S(=O)(=O)[O-])c3ccc(=[N+](CC)CC)cc-3oc2c1
- TD50 (rat, strain F344/DuCrj, females, in feed, site: any site (literature study), lesion: several types, types named in the paper, dosed 106 weeks, study length 106 weeks): 4100 mg/kg/day (inactive)
- carcinogen call (rat, strain F344/DuCrj, females, in feed, site: liver, lesion: one or several types, types not named, dosed 106 weeks, study length 106 weeks): negative (inactive)
- TD50 (rat, strain F344/DuCrj, males, in feed, site: any site (literature study), lesion: several types, types named in the paper, dosed 106 weeks, study length 106 weeks): 2350 mg/kg/day (inactive)
- carcinogen call (rat, strain F344/DuCrj, males, in feed, site: liver, lesion: neoplastic nodule, dosed 106 weeks, study length 106 weeks): negative (inactive)
